Experimental data as given in patent US6583147B1, “Pyrazolopyrimidinone derivatives for the treatment of impotence” (Dong A Pharm Co., Ltd., priority 1998, dated 2003).
Values after ≈ are worked out from the molar mass of the structure shown. Like-named read-outs stand apart in the source and are kept apart here.

What was measured:
rats = assay: Penile erection test using rats; type: in vivo, rat; details: oral single dose 10 mg/kg in 0.5% methyl cellulose, observed for 2 hours
[1] = target: T1, Phosphodiesterase-5 enzyme (PDE 5) (Homo sapiens, UniProt O76074); assay: Test for phosphodiesterase-5 (PDE 5) activity; type: biochemical; details: PDE 5 fraction from human corpus cavernosal tissues
T1 construct: separated by HPLC (Mono Q anion exchange column) with concentration gradient of 0-500 mM NaCl to elute PDE isozymes; from tissue; host or cells: human corpus cavernosal tissue

[2] = target: T2, Phosphodiesterase-3 enzyme (PDE 3) (Oryctolagus cuniculus, UniProt G1ST54); assay: Test for phosphodiesterase-3 (PDE 3) activity; type: biochemical; details: PDE 3 fraction from platelets of a rabbit
T2 construct: The supernatant was separated by DEAE-cellulose column chromatography (Whatman DE52 bead); from tissue; host or cells: rabbit platelets
T2 sequence (G1ST54 1-1128): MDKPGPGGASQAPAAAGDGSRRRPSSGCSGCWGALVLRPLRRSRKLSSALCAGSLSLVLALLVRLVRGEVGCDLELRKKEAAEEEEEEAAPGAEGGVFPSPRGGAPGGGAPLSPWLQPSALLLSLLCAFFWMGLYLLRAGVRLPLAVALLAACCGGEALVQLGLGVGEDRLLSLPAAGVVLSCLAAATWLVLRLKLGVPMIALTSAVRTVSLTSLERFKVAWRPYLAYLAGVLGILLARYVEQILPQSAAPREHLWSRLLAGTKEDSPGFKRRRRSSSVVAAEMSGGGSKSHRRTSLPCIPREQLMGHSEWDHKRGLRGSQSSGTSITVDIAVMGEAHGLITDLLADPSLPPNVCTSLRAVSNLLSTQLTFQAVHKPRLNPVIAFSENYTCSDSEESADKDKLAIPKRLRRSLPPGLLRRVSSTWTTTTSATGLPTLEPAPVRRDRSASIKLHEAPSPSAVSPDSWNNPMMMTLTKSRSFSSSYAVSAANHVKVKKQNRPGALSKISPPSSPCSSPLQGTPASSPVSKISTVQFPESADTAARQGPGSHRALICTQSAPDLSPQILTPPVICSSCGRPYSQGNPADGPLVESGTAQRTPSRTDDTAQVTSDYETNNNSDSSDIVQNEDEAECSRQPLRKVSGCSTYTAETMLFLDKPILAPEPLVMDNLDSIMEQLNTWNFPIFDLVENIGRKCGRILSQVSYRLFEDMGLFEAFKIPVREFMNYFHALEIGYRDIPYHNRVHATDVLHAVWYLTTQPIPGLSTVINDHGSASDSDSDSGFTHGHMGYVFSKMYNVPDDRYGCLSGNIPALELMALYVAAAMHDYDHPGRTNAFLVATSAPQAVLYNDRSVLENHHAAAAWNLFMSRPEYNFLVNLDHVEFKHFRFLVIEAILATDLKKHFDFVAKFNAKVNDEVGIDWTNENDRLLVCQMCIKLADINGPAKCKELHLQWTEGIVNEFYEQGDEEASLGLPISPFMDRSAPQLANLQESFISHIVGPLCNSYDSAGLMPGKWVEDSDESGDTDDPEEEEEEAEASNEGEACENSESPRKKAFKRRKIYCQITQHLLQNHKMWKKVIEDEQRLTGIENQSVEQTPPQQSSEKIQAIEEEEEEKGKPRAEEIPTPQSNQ
Description: Phosphodiesterase-3 enzyme (PDE 3) was separated from platelets of a rabbit. About 60 ml of blood was collected from a puncture of the abdominal artery of a rabbit in heparinized syringes. Platelet-rich plasma was harvested by centrifugation for 5 min at 450×g and further centrifuged for 15 min at 1,200×g to precipitate the platelets. The platelets were resuspended in homogenizing buffer (50 mM Tris-HCl, 1 mM MgCl2, pH 7.4), homogenized at 4° C. and ultrasonicated (30 sec/ml). The homogenized solution was centrifuged (105,000×g) for 1 hr at 4° C. to obtain the supernatant in which PDE was dissolved. The supernatant was separated by DEAE-cellulose column chromatography (Whatman DE52 bead) by using eluent (50 mM Tris-HCl, 3.75mM2-mercaptoethanol, pH 6.0) with concentration gradient of 0-1 M sodium acetate to elute PDE isozymes. The PDE activity was measured on the each column fraction by the following process to separate PDE 3 fraction and the inhibition for PDE 3 of the compounds of formula 1 was measured by using the fraction.
To 1.5 ml tube containing 100 ul of reaction mixture (15 mM Tris-HCl, 5 mM MgCl2, 0.5 mg/ml BSA, pH 7.4) were added appropriate amount of PDE 3 fraction and PDE inhibitor and the solution was mixed well. After [^3H]-cAMP or [^3H]-cGMP (500 nM, 2 uCi/ml) was added, the mixture was reacted in incubator of 30° C. for about 1 hour and the reaction was quenched by putting the tube into boiling water for about 45 seconds to 2 min. The tube was chilled in ice bath for about 5 min. To this tube was added snake venom (1 mg/ml, 100 ul) or 5′-nucleotidase (0.1 unit/tube) and the mixture was reacted in incubator of 37° C. for 10 min and chilled in ice bath. 3 times volume of methanol to the resin was added to the anion exchange resin (Bio-Rad resin, AG1-X2, 200-400 mesh) which had been already washed with 0.5 N HCl, H2O, 0.5 N NaOH, H2O, 0.5 N HCl and H2O in order and adjusted to pH 5. Then 1 ml of the pretreated resin was added to the each tube with vortexing. The mixture was left at 4° C. for 15 min with occasional vortexing and centrifuged (10,000 rpm) for about 5 min to sediment the resin. The supernatant (700 ul) was transferred to a liquid scintillation vial, and mixed with 10 ml of scintillation cocktail. After stabilizing the mixture by leaving it overnight, the radioactivity of the tube was measured by β-counter.

[3] = Acute oral toxicity test in rats; details: SD, rat, in vivo, 1 g/kg; rats, oral single dose; read-out: lethal dose (LD50) of oral administration
[4] = Solubility in buffer solution in pH=2&5; type: physicochemical; details: 20 °C, thermodynamic from solid
Description: According to that defined in the Korea Pharmacopoeia, citrate-HCl buffer (pH 2) and citrate-NaOH buffer (pH 5) solutions were added to the powdered compounds of formula 1, respectively. After subsequent severe shaking for 30 sec every 5 min in […] for 30 min, the level of compounds in the filtrate was measured by high performance liquid chromatography.

[5] = Metabolism in rat liver (9,000xg supernatant fraction with NADPH); type: in vitro ADME; details: 10 ug/ml, 37° C., 1 hr, rat liver 9,000xg supernatant with NADPH generating solution
Description: In order to evaluate the extent of metabolism of the compounds of formula 1, the metabolism in rat liver was studied as below similar to the reported method (C. L. Litterist, E. G. Mimnaugh, R. I. Reagan and T. G. Gram., Drug. Metabol. Disposit., 1975, 3, 259-265). In short, the disappearance of compounds after incubation in 9, 000×g supernatant fraction of rat liver homogenate in the presence of NADPH (reduced nicotinamide adenine dinucleotide phosphate) was evaluated.
First, Sprague-Dawley rat (Korea Experiment Animals, SPF) liver was isolated after perfusion through portal vein with 0.1 M phosphate buffer of pH 7.0 using tissue homogenizer at 4° C. After centrifugation at 9,000×g for 20 min, the supernatants were collected.
The compound stock solution was spiked (10 ug/ml) into each of the eppendorf tubes containing 1 ml of the mixed solution composing 1 volume of supernatants and 2 volumes of generating solution. The generating solution contains 1 mM NADP, 10 mM glucose-6-phosphate, 50 mM nicotinamide and 5 MM MgCl2 in 0.1 M phosphate buffer of pH 7.0. After vortex-mixing, each test tube was incubated in a water bath kept at 37° C. After 1 hr, was added acetonitrile to the reaction mixture and centrifuged. 100 ul of aliquot of the supernatant was sampled from each test tube for measuring the remnants by high performance liquid chromatography.

[6] = citrate-HCl buffer, pH 2, aqueous buffer, citrate-HCl buffer (pH 2), read-out: solubility pH 2
[7] = citrate-NaOH buffer, pH 5, aqueous buffer, citrate-NaOH buffer (pH 5), read-out: solubility pH 5

| Compound | PEI (penile erection index) (rats) | genital grooming (number of genital groomings) (rats) | IC50 [1] | IC50 [2] | LD50 [3] | solubility at 30 min [4, 6] | solubility at 30 min [4, 7] | remnants (%) [5] |
| --- | --- | --- | --- | --- | --- | --- | --- | --- |
| CCCOc1ccc(S(=O)(=O)Nc2ccncc2)cc1-c1nc2c(CCC)nn(C)c2c(=O)[nH]1 [Example 35, 5-[2-propyloxy-5-(4-pyridylamidosulfonyl)phenyl]-1-methyl-3-propyl-1,6-dihydro-7H-pyrazolo(4,3-d)pyrimidin-7-one] | 200.0 ± 0.0 | 2.0 ± 0.0 | 0.000935 µM | > 207 µM | > 1000 mg/kg | 11 µg/mL (≈ 22.8 µM) | 1 µg/mL (≈ 2.07 µM) | 90.6% |
| CCOc1ccc(S(=O)(=O)Nc2ccncc2)cc1-c1nc2c(CC(C)C)nn(C)c2c(=O)[nH]1 [Example 37, 5-[2-ethoxy-5-(4-pyridylamidosulfonyl)phenyl]-1-methyl-3-isobutyl-1,6-dihydro-7H-pyrazolo(4,3-d)pyrimidin-7-one] | 166.7 ± 57.7 | 1.3 ± 0.6 | 0.000897 µM |  | > 1000 mg/kg | 99 µg/mL (≈ 205 µM) | 7 µg/mL (≈ 14.5 µM) | 94.8% |
| CCCOc1ccc(S(=O)(=O)NCc2ccncc2)cc1-c1nc2c(CCC)nn(C)c2c(=O)[nH]1 [Example 44, 5-[2-propyloxy-5-(4-pyridylmethylamidosulfonyl)phenyl]-1-methyl-3-propyl-1,6-dihydro-7H-pyrazolo(4,3-d)pyrimidin-7-one] | 166.7 ± 115.5 | 1.3 ± 0.6 | 0.000328 µM | 12.6 µM | > 1000 mg/kg | 373 µg/mL (≈ 751 µM) | 1 µg/mL (≈ 2.01 µM) | 49.8% |
| CCOc1ccc(S(=O)(=O)NCc2ccncc2)cc1-c1nc2c(CC(C)C)nn(C)c2c(=O)[nH]1 [Example 46, 5-[2-ethoxy-5-(4-pyridylmethylamidosulfonyl)phenyl]-1-methyl-3-isobutyl-1,6-dihydro-7H-pyrazolo (4,3-d)pyrimidin-7-one] | 200.0 ± 173.2 | 1.3 ± 0.6 | 0.0012 µM | > 201 µM | > 1000 mg/kg | 183 µg/mL (≈ 369 µM) | 0.4 µg/mL (≈ 0.805 µM) | 75.9% |
| CCOc1ccc(S(=O)(=O)NCc2cccnc2)cc1-c1nc2c(CC(C)C)nn(C)c2c(=O)[nH]1 [Example 48, 5-[2-ethoxy-5-(3-pyridylmethylamidosulfonyl)phenyl]-1-methyl-3-isobutyl-1,6-dihydro-7H-pyrazolo(4,3-d)pyrimidin-7-one] | 166.7 ± 57.7 | 1.3 ± 0.6 | 0.00089 µM | 33.6 µM | > 1000 mg/kg | 114 µg/mL (≈ 230 µM) | 0.3 µg/mL (≈ 0.604 µM) | 66.0% |
| CCCOc1ccc(S(=O)(=O)NCc2cccnc2)cc1-c1nc2c(CCC)nn(C)c2c(=O)[nH]1 [Example 49, 5-[2-propyloxy-5-(3-pyridylmethylamidosulfonyl)phenyl]-1-methyl-3-propyl-1,6-dihydro-7H-pyrazolo(4,3-d)pyrimidin-7-one] | 200.0 ± 173.2 | 1.3 ± 0.6 | 0.0003 µM | 25.2 µM | > 1000 mg/kg | 43 µg/mL (≈ 86.6 µM) |  | 71.3% |
| CCOc1ccc(S(=O)(=O)NC2CCN(C)C2)cc1-c1nc2c(CC(C)C)nn(C)c2c(=O)[nH]1 (stereo not shown) [Example 54, 5-[2-ethoxy-5-(1-methyl-3-pyrrolidinylamidosulfonyl)phenyl]-1-methyl-3-isobutyl-1,6-dihydro-7H-pyrazolo(4,3-d)pyrimidin-7-one] | 233.3 ± 230.9 | 2.7 ± 2.9 | 0.0391 µM | > 205 µM | > 1000 mg/kg |  |  |  |
| CCCOc1ccc(S(=O)(=O)NCC2CCN(CC)C2)cc1-c1nc2c(CCC)nn(C)c2c(=O)[nH]1 (stereo not shown) [Example 64, 5-[2-propyloxy-5-(1-ethyl-3-pyrrolidinylmethylamidosulfonyl)phenyl]-1-methyl-3-propyl-1,6-dihydro-7H-pyrazolo(4,3-d)pyrimidin-7-one] | 175.0 ± 95.7 | 2.8 ± 0.5 | 0.0307 µM | 134 µM | > 1000 mg/kg |  |  |  |
| CCOc1ccc(S(=O)(=O)NCC2CCN(CC)C2)cc1-c1nc2c(CC(C)C)nn(C)c2c(=O)[nH]1 (stereo not shown) [Example 66, 5-[2-ethoxy-5-(1-ethyl-3-pyrrolidinylmethylamidosulfonyl)phenyl]-1-methyl-3-isobutyl-1,6-dihydro-7H-pyrazolo(4,3-d)pyrimidin-7-one] | 175.0 ± 95.7 | 2.8 ± 0.5 | 0.0358 µM | 90.4 µM | > 1000 mg/kg |  |  |  |
